Laboratory results published in patent US20190002935A1, “BACTERIAL CELLS WITH IMPROVED TOLERANCE TO POLYAMINES” (DANMARKS TEKNISKE UNIVERSITET, priority 2016, published 2019).

Legend:
E. coli K-12 MG1655 = assay: Growth Profiler growth of K-12 MG1655 in a range of concentrations of other polyamines and amine-containing compounds; settings: for tlag (lag time) / μ (growth rate): Growth Profiler; for screening concentration for which wild-type cells could achieve a growth rate of 0.2-0.3 h^−1: K-12 MG1655, uninhibited growth 0.7-0.9 h^−1 in M9 glucose minimal medium
From the text: For data obtained with the Growth Profiler, improved image analysis was additionally implemented to obtain the updated growth parameters. In the Tables below, for values labeled in columns with “(1)”, integrated pixel values (which were later converted to OD600 using a calibration curve) were obtained directly from image analysis capabilities in the Growth Profiler software. In the Tables below, for values labeled in columns with “(2)”, a new algorithm was implemented that automatically detected the pixel integration region in each well in each image by locating the darkest pixels in each well. These values were converted to OD600 with a calibration run in the same manner. The new algorithm provided for an improved accuracy in determining the growth rate, since it eliminated a slowly oscillating frequency that was sometimes observed in the original data, potentially related to the practical setup when scanning the plates.
Additionally, each evolved isolate was tested for cross-tolerance toward other polyamines and amine-containing compounds of biotechnological interest. First, K-12 MG1655 was tested in the Growth Profiler screening format for growth in the presence of a range of concentrations of each compound: 1,3-diaminopropane, 1,5-diaminopentane (cadaverine), spermidine, citrulline, ethylenediamine, carnitine, and ornithine. Variable concentrations of these compounds elicited growth inhibition in E. coli K-12 MG1655 (Table 36). […] The compounds citrulline and ornithine are polyamine-containing amino acids. […] Among the only exceptions were PUTR7-1 in citrulline and PUTR5-1 and PUTR6-2 in ornithine.

[1] = tested on: Escherichia coli K-12 MG1655; assay: Screening for tolerance in wild-type cells (Biolector, varying concentrations of putrescine or HMDA); format: cell-based; settings: for mean (1) tlag (lag time) / mean (1) μ (growth rate) / mean (2) tlag (lag time) / mean (2) μ (growth rate): K-12 MG1655; for mean (1) tlag (lag time) / mean (1) μ (growth rate): software version (1); for mean (2) tlag (lag time) / mean (2) μ (growth rate): software version (2); for maximum measured concentration at which K-12 MG1655 can grow: M9+1% glucose
Protocol: Escherichia coli K-12 MG1655 was grown overnight in M9 minimal medium+1% glucose and subcultured the following morning to an initial OD600 of 0.05 in M9+1% glucose. Cells were grown to mid-exponential phase (OD600 0.7-1.0) and were back-diluted with fresh medium to an OD600 of 0.7. […] The culture volume in each well was 1.4 mL.
For data obtained with the Biolector microbioreactor system, self-baselined growth series were imported directly into a custom software platform that automatically detects growth phases and exports growth rates and lag times.

[2] = K-12 MG1655, 5 g/L of the compound
[3] = K-12 MG1655, 10 g/L of the compound
[4] = K-12 MG1655, 20 g/L of the compound
[5] = K-12 MG1655, 25 g/L of the compound
[6] = K-12 MG1655, 30 g/L of the compound
[7] = K-12 MG1655, 40 g/L of the compound
[8] = K-12 MG1655, 50 g/L of the compound
[9] = K-12 MG1655, 45 g/L of the compound
[10] = K-12 MG1655, 60 g/L of the compound
[11] = K-12 MG1655, 75 g/L of the compound

`NCCC[C@H](N)C(=O)O` [ornithine] was tested, and the “tlag (lag time)” value (E. coli K-12 MG1655; [2]) was 8.2 h, the “μ (growth rate)” value (E. coli K-12 MG1655; [2]) was 0.439 h⁻¹ and the “tlag (lag time)” value (E. coli K-12 MG1655; [3]) was 17.1 h. The “μ (growth rate)” value (E. coli K-12 MG1655; [3]) was 0.260 h⁻¹, the “tlag (lag time)” value (E. coli K-12 MG1655; [4]) was 44.2 h and the “μ (growth rate)” value (E. coli K-12 MG1655; [4]) was 0.214 h⁻¹. For the same compound, the “tlag (lag time)” value (E. coli K-12 MG1655; [5]) was 53.2 h, the “μ (growth rate)” value (E. coli K-12 MG1655; [5]) was 0.150 h⁻¹ and the “tlag (lag time)” value (E. coli K-12 MG1655; [6]) was 82.6 h. For the same compound, the “μ (growth rate)” value (E. coli K-12 MG1655; [6]) was 0.076 h⁻¹, the “μ (growth rate)” value (E. coli K-12 MG1655; [7]) was 0.000 h⁻¹ and the “screening concentration for which wild-type cells could achieve a growth rate of 0.2-0.3 h^−1” value (“screening concentration” for short) (E. coli K-12 MG1655) was 10 g/L.
With `NCCN` [ethylenediamine, 1,2-diaminoethane] the “tlag (lag time)” value (E. coli K-12 MG1655; [2]) was 7.0 h, the “μ (growth rate)” value (E. coli K-12 MG1655; [2]) was 0.689 h⁻¹ and the “tlag (lag time)” value (E. coli K-12 MG1655; [3]) was 8.5 h. For the same compound, the “μ (growth rate)” value (E. coli K-12 MG1655; [3]) was 0.614 h⁻¹, the “tlag (lag time)” value (E. coli K-12 MG1655; [4]) was 32.9 h and the “μ (growth rate)” value (E. coli K-12 MG1655; [4]) was 0.152 h⁻¹. The “μ (growth rate)” value (E. coli K-12 MG1655; [5]) was 0.000 h⁻¹ and the “screening concentration” value (E. coli K-12 MG1655) was 18 g/L.
In the case of `NCCCN` [1,3-diaminopropane, propane-1,3-diamine], the “screening concentration” value (E. coli K-12 MG1655) is reported as 35 g/L.
`NCCCCN` [putrescine, butane-1,4-diamine] was tested, and the “mean (1) tlag (lag time)” value ([1]; 10 g/L) was 1.4 h, the “mean (1) μ (growth rate)” value ([1]; 10 g/L) was 0.698 h⁻¹ and the “mean (2) tlag (lag time)” value ([1]; 10 g/L) was 1.0 h. For the same compound, the “mean (2) μ (growth rate)” value ([1]; 10 g/L) was 0.538 h⁻¹, the “mean (1) tlag (lag time)” value ([1]; 20 g/L) was 2.2 h and the “mean (1) μ (growth rate)” value ([1]; 20 g/L) was 0.577 h⁻¹. For the same compound, the “mean (2) tlag (lag time)” value ([1]; 20 g/L) was 1.5 h, the “mean (2) μ (growth rate)” value ([1]; 20 g/L) was 0.392 h⁻¹ and the “mean (1) tlag (lag time)” value ([1]; 30 g/L) was 3.4 h. For the same compound, the “mean (1) μ (growth rate)” value ([1]; 30 g/L) was 0.350 h⁻¹, the “mean (2) tlag (lag time)” value ([1]; 30 g/L) was 6.2 h and the “mean (2) μ (growth rate)” value ([1]; 30 g/L) was 0.317 h⁻¹. The “mean (1) tlag (lag time)” value ([1]; 40 g/L) was 12.3 h, the “mean (1) μ (growth rate)” value ([1]; 40 g/L) was 0.108 h⁻¹ and the “mean (2) tlag (lag time)” value ([1]; 40 g/L) was 25.8 h. The “mean (2) μ (growth rate)” value ([1]; 40 g/L) was 0.148 h⁻¹, the “mean (1) tlag (lag time)” value ([1]; 50 g/L) was 19.8 h and the “mean (1) μ (growth rate)” value ([1]; 50 g/L) was 0.023 h⁻¹. For the same compound, the “mean (2) μ (growth rate)” value ([1]; 50 g/L) was 0.000 h⁻¹, the “mean (1) μ (growth rate)” value ([1]; 75 g/L) was 0.000 h⁻¹ and the “mean (2) μ (growth rate)” value ([1]; 75 g/L) was 0.000 h⁻¹. The “mean (1) μ (growth rate)” value ([1]; 100 g/L) was 0.000 h⁻¹, the “mean (2) μ (growth rate)” value ([1]; 100 g/L) was 0.000 h⁻¹ and the “maximum measured concentration at which K-12 MG1655 can grow” value ([1]; Biolector) was 40 g/L.
With `N=C(N)NCCCCN` [Agmatine, 1-amino-4-guanidinobutane] the “tlag (lag time)” value (E. coli K-12 MG1655; [3]) was 5.3 h, the “μ (growth rate)” value (E. coli K-12 MG1655; [3]) was 0.700 h⁻¹ and the “tlag (lag time)” value (E. coli K-12 MG1655; [4]) was 5.6 h. The “μ (growth rate)” value (E. coli K-12 MG1655; [4]) was 0.630 h⁻¹, the “tlag (lag time)” value (E. coli K-12 MG1655; [5]) was 6.1 h and the “μ (growth rate)” value (E. coli K-12 MG1655; [5]) was 0.648 h⁻¹. The “tlag (lag time)” value (E. coli K-12 MG1655; [6]) was 6.3 h, the “μ (growth rate)” value (E. coli K-12 MG1655; [6]) was 0.610 h⁻¹ and the “tlag (lag time)” value (E. coli K-12 MG1655; [7]) was 7.0 h. The “μ (growth rate)” value (E. coli K-12 MG1655; [7]) was 0.632 h⁻¹, the “tlag (lag time)” value (E. coli K-12 MG1655; [8]) was 7.9 h and the “μ (growth rate)” value (E. coli K-12 MG1655; [8]) was 0.523 h⁻¹. The “concentration up to which the compound was non-toxic” value (E. coli K-12 MG1655; K-12 MG1655, Growth Profiler) was “up to 50 g/L”.
`NC(=O)NCCC[C@H](N)C(=O)O` [citrulline] was tested, and the “tlag (lag time)” value (E. coli K-12 MG1655; [5]) was 6.7 h, the “μ (growth rate)” value (E. coli K-12 MG1655; [5]) was 0.759 h⁻¹ and the “tlag (lag time)” value (E. coli K-12 MG1655; [6]) was 7.0 h. For the same compound, the “μ (growth rate)” value (E. coli K-12 MG1655; [6]) was 0.702 h⁻¹, the “tlag (lag time)” value (E. coli K-12 MG1655; [7]) was 7.5 h and the “μ (growth rate)” value (E. coli K-12 MG1655; [7]) was 0.677 h⁻¹. For the same compound, the “tlag (lag time)” value (E. coli K-12 MG1655; [9]) was 8.6 h, the “μ (growth rate)” value (E. coli K-12 MG1655; [9]) was 0.508 h⁻¹ and the “tlag (lag time)” value (E. coli K-12 MG1655; [8]) was 9.2 h. The “μ (growth rate)” value (E. coli K-12 MG1655; [8]) was 0.538 h⁻¹, the “tlag (lag time)” value (E. coli K-12 MG1655; [10]) was 10.4 h and the “μ (growth rate)” value (E. coli K-12 MG1655; [10]) was 0.437 h⁻¹. The “tlag (lag time)” value (E. coli K-12 MG1655; [11]) was 12.4 h, the “μ (growth rate)” value (E. coli K-12 MG1655; [11]) was 0.355 h⁻¹ and the “screening concentration” value (E. coli K-12 MG1655) was 80 g/L.
For `NCCCCCCN` [HMDA, hexane-1,6-diamine], the “mean (1) tlag (lag time)” value ([1]; 10 g/L) was 1.3 h, the “mean (1) μ (growth rate)” value ([1]; 10 g/L) was 0.806 h⁻¹ and the “mean (2) tlag (lag time)” value ([1]; 10 g/L) was 0.8 h. For the same compound, the “mean (2) μ (growth rate)” value ([1]; 10 g/L) was 0.605 h⁻¹, the “mean (1) tlag (lag time)” value ([1]; 20 g/L) was 1.4 h and the “mean (1) μ (growth rate)” value ([1]; 20 g/L) was 0.601 h⁻¹. The “mean (2) tlag (lag time)” value ([1]; 20 g/L) was 0.3 h, the “mean (2) μ (growth rate)” value ([1]; 20 g/L) was 0.394 h⁻¹ and the “mean (1) tlag (lag time)” value ([1]; 30 g/L) was 1.7 h. The “mean (1) μ (growth rate)” value ([1]; 30 g/L) was 0.475 h⁻¹, the “mean (2) tlag (lag time)” value ([1]; 30 g/L) was 0.0 h and the “mean (2) μ (growth rate)” value ([1]; 30 g/L) was 0.241 h⁻¹. The “mean (1) tlag (lag time)” value ([1]; 40 g/L) was 2.6 h, the “mean (1) μ (growth rate)” value ([1]; 40 g/L) was 0.216 h⁻¹ and the “mean (2) tlag (lag time)” value ([1]; 40 g/L) was 2.3 h. The “mean (2) μ (growth rate)” value ([1]; 40 g/L) was 0.136 h⁻¹, the “mean (1) μ (growth rate)” value ([1]; 50 g/L) was 0.000 h⁻¹ and the “mean (2) μ (growth rate)” value ([1]; 50 g/L) was 0.000 h⁻¹. The “mean (1) μ (growth rate)” value ([1]; 75 g/L) was 0.000 h⁻¹, the “mean (2) μ (growth rate)” value ([1]; 75 g/L) was 0.000 h⁻¹ and the “mean (1) μ (growth rate)” value ([1]; 100 g/L) was 0.000 h⁻¹. The “mean (2) μ (growth rate)” value ([1]; 100 g/L) was 0.000 h⁻¹, the “concentration at which zero/no growth was detected” value ([1]; K-12 MG1655, M9+1% glucose, Biolector) was 50 g/L and the “maximum measured concentration at which K-12 MG1655 can grow” value ([1]; Biolector) was 40 g/L.
For `NCCCCCN` [cadaverine, pentane-1,5-diamine], the “screening concentration” value (E. coli K-12 MG1655) was 35 g/L.
`NCCCCNCCCN` [spermidine, N-(3-aminopropyl)-1,4-diaminobutane] was tested, and the “screening concentration” value (E. coli K-12 MG1655) was 40 g/L.
For `C[N+](C)(C)CC(O)CC(=O)[O-]` (centres unmarked) [carnitine], the “tlag (lag time)” value (E. coli K-12 MG1655; [2]) was 6.6 h, the “μ (growth rate)” value (E. coli K-12 MG1655; [2]) was 0.786 h⁻¹ and the “tlag (lag time)” value (E. coli K-12 MG1655; [3]) was 7.5 h. For the same compound, the “μ (growth rate)” value (E. coli K-12 MG1655; [3]) was 0.545 h⁻¹ and the “μ (growth rate)” value (E. coli K-12 MG1655; [4]) was 0.000 h⁻¹.
